# In patent US20240398793A1, “Methods of Treating Lymphedema” (Celltaxis, LLC, priority 2021, published 2024):
# Read-outs that look alike come from different tables or passages of the source.
# How the values were obtained:
# [1] = Nonclinical pharmacokinetics and mass balance studies; type: in vivo, animals
# LTB4 production in blood = assay: Human pharmacodynamic studies, inhibition of LTB4 production in blood; type: in vivo
# LTA4H epoxide hydrolase [2] = molecular target: T1, LTA4H epoxide hydrolase (Homo sapiens (Human), UniProt P09960); assay: LTA4H epoxide hydrolase enzymatic activity (LTB4 production) in vitro; type: biochemical; conditions: read-out: IC50, LTA4H-mediated production of LTB4
# T1 sequence (P09960 whole entry): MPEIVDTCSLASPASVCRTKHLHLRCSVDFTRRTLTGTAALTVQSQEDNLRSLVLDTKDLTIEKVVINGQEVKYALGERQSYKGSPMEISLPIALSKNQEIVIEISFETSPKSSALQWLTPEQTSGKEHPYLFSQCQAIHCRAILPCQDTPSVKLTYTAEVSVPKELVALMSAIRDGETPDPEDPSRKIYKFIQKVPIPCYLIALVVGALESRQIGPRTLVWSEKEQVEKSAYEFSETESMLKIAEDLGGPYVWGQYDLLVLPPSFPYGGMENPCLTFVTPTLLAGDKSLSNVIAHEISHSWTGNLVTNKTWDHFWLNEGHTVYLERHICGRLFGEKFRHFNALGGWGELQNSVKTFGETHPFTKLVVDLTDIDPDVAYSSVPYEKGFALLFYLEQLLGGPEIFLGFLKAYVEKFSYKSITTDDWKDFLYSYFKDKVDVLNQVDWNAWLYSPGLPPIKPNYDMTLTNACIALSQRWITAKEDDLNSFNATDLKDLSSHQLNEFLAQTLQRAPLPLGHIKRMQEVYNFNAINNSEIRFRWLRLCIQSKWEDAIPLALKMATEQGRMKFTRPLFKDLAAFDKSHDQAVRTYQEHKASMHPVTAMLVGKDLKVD
# Experimental: The hydrolase-homogeneous time resolved fluorescence assay is a two-step assay that measures the hydrolysis of LTA4 to LTB4 by analyzing the amount of LTB4 produced. The first step involves the enzymatic conversion of LTA4 to LTB4 and the second step involves the quantification of the LTB4 formed with a homogeneous time resolved fluorescence assay. […] In the whole blood assay, the inhibitor compounds are tested for their ability to inhibit LTB4 release upon stimulation with calcium ionophore and the LTB4 levels in supernatants are measured by ELISA.
# [3] = test system: LTB4 production in human whole blood; assay: LTB4 production in ex vivo stimulated human whole blood; type: cell-based
# Source text: The IC50 of LTA4H epoxide hydrolase activity can be measured using methods known in the art, for example, using the LTA4 hydrolase homogenous time resolved fluorescence assay which is described, for example, in U.S. Pat. Nos. 7,737,145 and 10,202,362; the contents of which are expressly incorporated by reference herein. The hydrolase-homogeneous time resolved fluorescence assay is a two-step assay that measures the hydrolysis of LTA4 to LTB4 by analyzing the amount of LTB4 produced. The first step involves the enzymatic conversion of LTA4 to LTB4 and the second step involves the quantification of the LTB4 formed with a homogeneous time resolved fluorescence assay. LTA4H epoxide hydrolase activity can also be measured in a whole blood assay, for example, using human whole blood, using the method described in Penning, T. D. et al., J. Med. Chem. (2000), 43 (4): 721-735 and U.S. Pat. No. 7,737,145; the contents of each of which are expressly incorporated by reference herein. In the whole blood assay, the inhibitor compounds are tested for their ability to inhibit LTB4 release upon stimulation with calcium ionophore and the LTB4 levels in supernatants are measured by ELISA. LTA4H epoxide hydrolase activity can also be measured according to the method described in Low et al. (2017). […]
# LTA4H aminopeptidase = LTA4H aminopeptidase (Homo sapiens (Human), UniProt P09960); conditions: Bhatt et al. (2017); read-out: LTA4H aminopeptidase potency; cited from earlier work
# LTA4H aminopeptidase, sequence (P09960 whole entry): as above
# [4] = test system: patients with cystic fibrosis; assay: Phase 2 study in adult CF patients, 48 weeks, efficacy; type: in vivo, human; conditions: for rate of pulmonary exacerbations: 48 weeks of treatment
# LTA4H epoxide hydrolase [5] = molecular target: T1, LTA4H epoxide hydrolase; conditions: read-out: LTA4H epoxide hydrolase potency; Bhatt et al. (2017); cited from earlier work
# [6] = Long-term animal safety studies; type: in vivo, animals
# P-glycoprotein (P-gp) = P-glycoprotein (P-gp) (Homo sapiens (Human), UniProt P08183); assay: In vitro drug interaction study, P-gp; type: in vitro ADME
# P-glycoprotein (P-gp), sequence (P08183 whole entry): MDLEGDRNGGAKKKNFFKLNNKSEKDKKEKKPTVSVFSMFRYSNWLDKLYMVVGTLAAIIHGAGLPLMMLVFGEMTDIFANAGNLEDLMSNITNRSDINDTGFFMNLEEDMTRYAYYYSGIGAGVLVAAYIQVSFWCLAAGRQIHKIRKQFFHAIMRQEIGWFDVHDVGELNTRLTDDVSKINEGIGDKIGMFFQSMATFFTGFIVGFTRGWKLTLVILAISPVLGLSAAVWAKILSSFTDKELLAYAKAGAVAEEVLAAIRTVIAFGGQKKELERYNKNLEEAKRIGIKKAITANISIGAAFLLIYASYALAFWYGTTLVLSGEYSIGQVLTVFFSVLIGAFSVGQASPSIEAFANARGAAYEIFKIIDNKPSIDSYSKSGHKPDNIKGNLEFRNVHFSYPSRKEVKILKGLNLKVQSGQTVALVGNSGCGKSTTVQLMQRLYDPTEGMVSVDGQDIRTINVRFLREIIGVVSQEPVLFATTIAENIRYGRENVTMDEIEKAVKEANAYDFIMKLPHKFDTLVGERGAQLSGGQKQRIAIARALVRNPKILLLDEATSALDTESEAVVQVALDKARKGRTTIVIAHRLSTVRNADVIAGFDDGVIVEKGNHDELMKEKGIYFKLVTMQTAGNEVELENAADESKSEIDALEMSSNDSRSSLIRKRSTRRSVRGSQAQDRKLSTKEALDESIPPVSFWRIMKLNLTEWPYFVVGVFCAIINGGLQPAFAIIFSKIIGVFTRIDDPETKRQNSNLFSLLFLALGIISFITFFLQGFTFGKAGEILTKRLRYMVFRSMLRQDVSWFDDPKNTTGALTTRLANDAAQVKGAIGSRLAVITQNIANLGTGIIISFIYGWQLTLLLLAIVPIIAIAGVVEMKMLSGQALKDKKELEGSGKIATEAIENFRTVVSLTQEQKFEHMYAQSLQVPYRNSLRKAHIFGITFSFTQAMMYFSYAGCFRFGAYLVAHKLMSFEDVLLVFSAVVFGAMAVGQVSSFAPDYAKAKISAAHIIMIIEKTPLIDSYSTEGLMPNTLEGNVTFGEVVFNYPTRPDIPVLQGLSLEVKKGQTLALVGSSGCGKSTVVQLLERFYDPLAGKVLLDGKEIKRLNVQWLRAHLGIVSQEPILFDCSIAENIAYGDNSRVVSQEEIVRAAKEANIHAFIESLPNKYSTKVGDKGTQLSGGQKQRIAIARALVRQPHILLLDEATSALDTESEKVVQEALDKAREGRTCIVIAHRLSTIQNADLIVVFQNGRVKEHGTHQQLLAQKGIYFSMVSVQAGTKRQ
# [7] = Human pharmacokinetics after oral administration; type: in vivo; conditions: for half-life / Tmax: human, plasma; for half-life: oral, read-out: T1/2 (elimination half-life); for Tmax: po
# [8] = Preclinical phototoxicity studies
smiles,measurement,setting,value
"O=C(O)c1ccc(CN2C[C@@H]3C[C@H]2CN3Cc2ccc(Oc3ccc(-c4ncco4)cc3)cc2)cc1 [Acebilustat, 4-{[(1S,4S)-5-({4-[4-oxazol-2-yl-phenoxy]phenyl}methyl)-2,5-diazabicyclo[2.2.1]heptan-2-yl]methyl}benzoic acid]",accumulation and retention in pigmented tissues (uveal tract),[1]; mass balance studies in animals,some potential for accumulation and retention
same,route of elimination,[1]; nonclinical,primarily via liver-bile-feces
same,total drug excreted via kidneys,[1]; nonclinical,less than 3%
same,inhibition at 50 mg,"LTB4 production in blood; 50 mg dose, human pharmacodynamic studies",≥ 63%
same,inhibition at 100 mg,"LTB4 production in blood; 100 mg dose, human pharmacodynamic studies",≥ 74%
same,inhibition at 150 mg,"LTB4 production in blood; 150 mg dose, human pharmacodynamic studies",≥ 82%
same,inhibition at 200 mg,"LTB4 production in blood; 200 mg dose, human pharmacodynamic studies",≥ 85%
same,EC50,"LTB4 production in blood; Homo sapiens, in vivo, humans, estimated",0.093 µg/mL
same,EC50,"LTB4 production in blood; human clinical PD studies, blood",190 nM
same,EC50 for inhibition of LTB4 production,"LTB4 production in blood; in vivo, humans, estimated",0.093 µg/mL
same,engagement of the pharmacologic mechanism in blood over 24-hour dosing interval,"LTB4 production in blood; once-daily oral doses of 50 mg and above, phase 1 studies",significant engagement of the pharmacologic mechanism
same,IC50,LTA4H epoxide hydrolase [2],13 nM
same,IC50,[3]; ex vivo stimulated human whole blood,64 nM
same,IC50,"[3]; human whole blood tested ex vivo, approximate",~0.0308 µg/mL
same,IC50,LTA4H aminopeptidase,27 nM
same,change from baseline in percent predicted FEV1 versus placebo,"[4]; 48-week Phase 2 CF study, primary endpoint",no statistically significant difference
same,time to first pulmonary exacerbation,"[4]; CF patients, 48 weeks, secondary efficacy analysis",concordant numerical benefit
same,risk of infection,"[4]; adult CF patients, 48 weeks",no evidence of increased risk of infection
same,rate of pulmonary exacerbations,[4]; adult CF patients,concordant numerical benefit
same,rate of pulmonary exacerbations,"[4]; adult CF patients, listed as acebilustat",showed promise in reducing the rate of pulmonary exacerbations
same,IC50,LTA4H epoxide hydrolase [5],12 nM
same,ophthalmologic changes,[6]; long term safety studies,no evidence for ophthalmologic changes
same,dose limiting toxicity,[6]; long-term animal safety studies across species,failure to gain weight associated with reduced food consumption
same,drug interactions with substrates of P-gp,P-glycoprotein (P-gp),potential for drug interactions
same,half-life,[7]; CF patients,8 to 9 h
same,half-life,[7]; healthy volunteers,15 to 18 h
same,Tmax,"[7]; humans, fasting",~1.5 h
same,Tmax,"[7]; humans, with a high-fat meal",5 to 6 h
same,"exposures (Cmax, AUC), healthy volunteers versus CF patients",[7]; humans,did not vary appreciably
same,time to steady state exposure,"[7]; humans, repeated dosing",7 days
same,effect of larger body size and concomitant CFTR modulator therapies on clearance,"[7]; population PK, Phase 2 CF trial",increase clearance
same,phototoxic effects,[8],no potential for phototoxic effects
